For one experiment, the target named is T1, JAK3 (Homo sapiens, UniProt P52333).
T1 construct: purchased Thermo fisher PV3855
The experiment is described as follows: JAK3 biochemical assay (ADP-GLO Kinase Assay). Conditions: for JAKs/HPK1 IC50 Ratio, B* / JAKs/HPK1 IC50 Ratio, N*: ratio of JAK3 IC50 to HPK1 IC50; for JAKs/HPK1 IC50 Ratio, B*: first testing facility; for JAKs/HPK1 IC50 Ratio, N*: second testing facility. Here is the method:
Biology Example 4 JAK3 Biochemical Assay
This example used the ADP-GLO™ Kinase Assay to measure the effect of potential HPK1 inhibitor compounds on JAK3 kinase activity. An exemplary experimental setting is described below, though minor adjustments can be made in individual assays.
3. Procedures • 1. Prepare JAK3 kinase buffer • Freshly adding DTT and BSA into Buffer (Final Conc.: 40 mM Tris pH7.5; 20 mM MgCl2, 0.1 mg/ml BSA, 50 μM DTT).
• 2. Compounds Preparation • For tested compounds: compounds were diluted to 1 mM, by mixing 5 μL of 10 mM compound stocks to 45 μL DMSO. The compounds solutions were then serially diluted 3-fold for 10 doses. The top compound concentration was 1 mM (100×), DMSO concentration was 100%. • 50 nL of each of 10 doses of diluted compound were added to 384-well assay plate (Corning #4512) by ECHO. • For positive control, 50 nL of 1 mM reference compound were added to 384-well assay plate (Corning #4512) by ECHO. • For negative control: 50 nL of DMSO was transferred into 384-well assay plate as a negative control. • The assay plate was centrifuged at 1,500 rpm for 1 minute. • 3. Compounds were Transferred by ECHO Following the Layout Below: • Reference and test compounds 1-15: serial 3-fold dilution from 10 μM to 0.508 nM (10 doses); negative control is 0.78 ng JAK3, 4 μM ATP & 0.2 μg/μL poly, 1% DMSO; positive control is the top dose of the reference compound, 0.78 ng JAK3, 0.2 μg/μL Poly(E4Y1), 4 μMATP, 1% DMSO. • 4. Add 2.5 μL/well of 2×JAK3 working solution using pipette (Thermo, 30 μL multi-channel), Centrifuge at 1,500 rpm for 1 minute. • 5. Add 2.5 μL/well of 2×ATP-Poly(E4Y1) working mixture using pipette (Thermo, 30 μL multi-channel), Centrifuge at 1,500 rpm for 1 minute. • 6. Incubate the assay plate at 25° C. for 60 min. • 7. Add 5 μL/well ADP-GLO™ Reagent by BRAVO to stop the kinase reaction and deplete the unconsumed ATP after 1 hour. Centrifuge at 1,500 rpm for 1 minute. Incubate at 25° C. for 40 min. • 8. Add 10 uL of Kinase Detection Reagent by BRAVO to convert ADP to ATP. Centrifuge at 1,500 rpm for 1 minute. Incubate at 25° C. for 40 min. • 9. Record luminescence signal on an Envision plate reader (384-USL). • 10. Process data using XL-fit. Inhibition %=[1-(test well−Negative control)/(positive control−Negative control)]*100%. 5. Data Analysis
The percent (%) inhibition at each concentration of compound is calculated based on and relative to the signal in the Negative and Positive control wells contained within each assay plate. The Negative control wells served as 0% inhibition, and the Positive control wells served as 100% inhibition. The concentrations and % inhibition values for tested compounds are plotted and the concentration of compound required for 50% inhibition (IC50) is determined with a Three-parameter logistic dose response equation. The endpoint value (IC50) for the reference peptide/compound is evaluated in each experiment as a quality control measure. If the endpoint value was within 3-fold of the expected value then the experiment was deemed acceptable.
On the technique in general: ADP-Glo turns the ADP formed in a reaction into a luminescent signal.

For a further experiment, the target named is HPK1 (Homo sapiens, UniProt Q92918). The experiment is described as follows: HPK1 biochemical assay (ADP-GLO Kinase Assay). The text has this: IC50 values of any compounds can be determined accordingly over a range of inhibitor concentrations. In addition, the inhibitory effect of the compounds can also be assess using a biological assay, to determine the effect of the compounds on cytokine secretion by T cells following TCR and CD28 stimulation.
Sequence of HPK1 (Q92918 whole entry): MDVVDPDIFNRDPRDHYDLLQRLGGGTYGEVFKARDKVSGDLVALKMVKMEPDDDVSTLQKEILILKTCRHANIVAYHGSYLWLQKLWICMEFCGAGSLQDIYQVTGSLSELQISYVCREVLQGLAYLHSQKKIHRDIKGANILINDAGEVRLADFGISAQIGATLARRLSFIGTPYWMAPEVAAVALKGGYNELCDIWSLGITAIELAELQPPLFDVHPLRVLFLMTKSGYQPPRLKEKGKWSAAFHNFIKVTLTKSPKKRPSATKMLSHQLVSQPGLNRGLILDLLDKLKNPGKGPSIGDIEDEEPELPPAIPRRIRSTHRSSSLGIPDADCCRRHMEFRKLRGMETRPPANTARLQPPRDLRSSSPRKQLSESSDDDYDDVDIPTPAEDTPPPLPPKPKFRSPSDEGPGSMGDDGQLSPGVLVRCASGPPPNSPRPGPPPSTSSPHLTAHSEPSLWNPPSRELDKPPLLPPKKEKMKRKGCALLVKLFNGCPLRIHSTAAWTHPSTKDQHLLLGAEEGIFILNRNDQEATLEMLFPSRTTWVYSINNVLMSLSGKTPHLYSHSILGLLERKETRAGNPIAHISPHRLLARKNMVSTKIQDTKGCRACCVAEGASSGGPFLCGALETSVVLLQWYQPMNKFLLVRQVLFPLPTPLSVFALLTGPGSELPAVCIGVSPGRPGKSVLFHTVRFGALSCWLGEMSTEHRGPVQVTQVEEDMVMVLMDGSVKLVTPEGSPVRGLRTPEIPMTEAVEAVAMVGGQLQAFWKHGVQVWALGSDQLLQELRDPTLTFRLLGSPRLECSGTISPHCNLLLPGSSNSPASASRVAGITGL
Biology Example 1 HPK1 Biochemical Assay
This example used the ADP-GLO™ Kinase Assay to measure the effect of potential HPK1 inhibitor compounds on HPK1 kinase activity.
The ADP-GLO™ Kinase Assay (Promega Corp., Madison, WI) measures ADP formed from a kinase reaction. According to the manufacture, the ADP formed in a kinase assay is first converted into ATP, which is then used to generate light in a luciferase reaction. The luminescence generated correlates with kinase activity. An exemplary experimental setting is described below, though minor adjustments can be made in individual assays.
Serial 3-fold dilution of compounds from 10 μM (top concentration) to 0.508 nM (lowest concentration). Positive control is 10 μM Reference+enzyme+substrate. Negative control is 1% DMSO+enzyme+substrate.
• 1. Buffer Preparation • 40 mM Tris pH7.5; 20 mM MgCl2, 0.1 mg/ml BSA, 50 μM DTT Buffer Stock
Add 20 mL 1M Tris and 10 mL 1M MgCl2 to 470 mL ddH2O to get buffer stock, and stock at RT. • 2. Preparing Fresh 1* Assay Buffer
• 3. Compounds Preparation • 1) The compounds were diluted to 1 mM, by mixing 10 μL of 10 mM respective compound stocks with 90 μL of DMSO. • 2) The compounds were then diluted 3-fold for 10 doses (5 μL to 10 μL dilution) by BRAVO. The top compound conc. was 1 mM (100×), DMSO Conc. was 100%. • 3) Transfer 100 nL of each diluted compound sample to 384-well plate (Corning-4512) by ECHO. • 4) Centrifuge the plate at 1,500 rpm for 1 minute. • 4. Preparation of 2×ATP-MBP Mixture: • 20 μM ATP, 0.2 μg/μL MBP in Kinase Buffer (final concentration: 10 μM ATP, 0.1 MBP)
• 5. Preparation of 2×HPK1 working solution with assay buffer. • HPK1 final concentration was 0.6 ng/μL. […] Incubate at 25° C. for 40 min. • 11. Record luminescence signal on an Envision plate reader (384-CTG). 5. Data Analysis
The percent (%) inhibition at each concentration of compound is calculated based on and relative to the signal in the High and Low control wells contained within each assay plate. […] The concentrations and % inhibition values for tested compounds were plotted and the concentration of compound required for 50% inhibition (IC50) was determined with a Three-parameter logistic dose response equation. The endpoint value (IC50) for the reference peptide/compound was evaluated in each experiment as a quality control measure. If the endpoint value was within 3-fold of the expected value, then the experiment was deemed acceptable.

Where [1] appears, read: B*: testing performed in a first testing facility, read-out: JAK3 IC50 (nM) Relative, B*.
The mark [2] stands for this setting: B*: testing performed in a first testing facility, read-out: HPK1 IC50 (nM) Relative, B*.
The mark [3] stands for this setting: N*: testing performed in a second testing facility, read-out: JAK3 IC50 (nM) Relative, N*.
The mark [4] stands for this setting: N*: testing performed in a second testing facility, read-out: HPK1 IC50 (nM) Relative, N*.

Read-outs that look alike come from different tables or passages of the source.

For orientation: IC50 means the point on the concentration scale where inhibition reaches its midpoint.

T1 sequence (P52333 781-1124 limits assumed): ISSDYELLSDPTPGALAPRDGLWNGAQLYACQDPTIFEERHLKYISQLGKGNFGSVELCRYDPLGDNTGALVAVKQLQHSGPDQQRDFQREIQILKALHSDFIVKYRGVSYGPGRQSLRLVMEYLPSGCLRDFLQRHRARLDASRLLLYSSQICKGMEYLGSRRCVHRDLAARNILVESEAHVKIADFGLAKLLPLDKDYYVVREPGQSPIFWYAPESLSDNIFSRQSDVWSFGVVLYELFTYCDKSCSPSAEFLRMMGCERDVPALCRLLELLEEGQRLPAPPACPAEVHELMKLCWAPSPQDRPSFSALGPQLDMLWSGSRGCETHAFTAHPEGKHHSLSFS

As for `COc1cc2c(cc1Nc1ncc3c(n1)N(c1ccccc1P(C)(C)=O)CCO3)CN(C)CC2` [Example 47, (2-(2-((6-Methoxy-2-methyl-1,2,3,4-tetrahydroisoquinolin-7-yl)amino)-6H-pyrimido[5,4-b][1,4]oxazin-8(7H)-yl)phenyl)dimethylphosphine oxide], the IC50 was greater than 1000 nM on JAK3 (setting [1]) and 100 to 500 nM on HPK1 (setting [2]). Moreover, the “JAKs/HPK1 IC50 Ratio, B*” value at JAK3 was greater than 22.
Turning to `COc1cc2c(cc1Nc1ncc(Cl)c(N3CC(C)(C(=O)O)c4ccccc43)n1)CN(C)CC2` (stereo not drawn) [Example 117], the concentration for half-maximal inhibition (IC50) on JAK3 (setting [1]) and on HPK1 (setting [2]) was no more than 100 nM in each case. Moreover, on JAK3, the “JAKs/HPK1 IC50 Ratio, B*” value was determined as 5.
Take `COc1cc2c(cc1Nc1ncc(Cl)c(N3CCCc4ccccc43)n1)CN(C)CC2` [Example 6, N-(5-chloro-4-(3,4-dihydroquinolin-1(2H)-yl)pyrimidin-2-yl)-6-methoxy-2-methyl-1,2,3,4-tetrahydroisoquinolin-7-amine]: the 50% inhibitory concentration (IC50) was greater than 1000 nM at JAK3 (setting [1]) and no more than 100 nM on HPK1 (setting [2]).
Regarding `CCc1c(Cl)[nH]c2ncc(-c3ccc(N)c(P(C)(C)=O)c3)cc12` [Example 69, (2-Amino-5-(2-chloro-3-ethyl-1H-pyrrolo[2,3-b]pyridin-5-yl)phenyl)dimethylphosphine oxide], the results for the IC50 on JAK3 (setting [3]), at HPK1 (setting [2]) and at HPK1 (setting [4]) were 500 to 1000 nM, no more than 100 nM and no more than 100 nM, respectively. In addition, the “JAKs/HPK1 IC50 Ratio, N*” value on JAK3 is listed as 52.
In the case of `COc1cc2c(cc1Nc1ncc(Cl)c(-n3cc(C(C(=O)O)C(F)(F)F)c4ccccc43)n1)CN(C)CC2` (stereo not drawn) [Example 144], the IC50 at JAK3 (setting [1]) is greater than 1000 nM; at HPK1 (setting [2]), no more than 100 nM. On JAK3, the “JAKs/HPK1 IC50 Ratio, B*” value is listed as 250.
For the molecule `CCc1c[nH]c2ncc(-c3ccc(-c4ncco4)c(P(C)(C)=O)c3)cc12` [Example 63, (5-(3-Ethyl-1H-pyrrolo[2,3-b]pyridin-5-yl)-2-(oxazol-2-yl)phenyl)dimethylphosphine oxide], the IC50 was greater than 1000 nM on JAK3 (setting [1]) and 100 to 500 nM at HPK1 (setting [2]). Moreover, the “JAKs/HPK1 IC50 Ratio, B*” value at JAK3 is given as 19.
`COc1cc2c(cc1Nc1ncc(Cl)c(-n3cc(CS(C)(=O)=O)c4ccccc43)n1)CN(C)CC2` [Example 82, N-(5-chloro-4-(3-((methylsulfonyl)methyl)-1H-indol-1-yl)pyrimidin-2-yl)-6-methoxy-2-methyl-1,2,3,4-tetrahydroisoquinolin-7-amine]: the IC50 at JAK3 (setting [1]) was greater than 1000 nM; on HPK1 (setting [2]) it was no more than 100 nM. In addition, the “JAKs/HPK1 IC50 Ratio, B*” value at JAK3 was 800.
In the case of `CCc1c[nH]c2ncc(-c3ccc(CO)c(P(C)(C)=O)c3)cc12` [Example 73, (5-(3-Ethyl-1H-pyrrolo[2,3-b]pyridin-5-yl)-2-(hydroxymethyl)phenyl)dimethylphosphine oxide], the half-inhibitory concentration (IC50) on JAK3 (setting [1]) was in the range of 500 to 1000 nM; at HPK1 (setting [2]), 100 to 500 nM. For the same molecule, the “JAKs/HPK1 IC50 Ratio, B*” value on JAK3 is 5.
For `COc1cc2c(cc1Nc1ncc(Cl)c(-n3cc(S(C)(=O)=O)c4ccccc43)n1)CN(C)CC2` [Example 80, N-(5-chloro-4-(3-(methylsulfonyl)-1H-indol-1-yl)pyrimidin-2-yl)-6-methoxy-2-methyl-1,2,3,4-tetrahydroisoquinolin-7-amine], in that order: greater than 1000 nM, no more than 100 nM and greater than 1172.
For the molecule `COc1cc2c(cc1Nc1ncc3ncn(-c4ccccc4)c3n1)CN(C)CC2` [Example 43, 6-Methoxy-2-methyl-N-(9-phenyl-9H-purin-2-yl)-1,2,3,4-tetrahydroisoquinolin-7-amine], the 50% inhibitory concentration (IC50) on JAK3 (setting [3]), at HPK1 (setting [2]) and at HPK1 (setting [4]) was greater than 1000 nM throughout. The “JAKs/HPK1 IC50 Ratio, N*” value on JAK3 is listed as greater than 10.
On to `CC(C)c1c[nH]c2ncc(-c3ccc(N)c(P(C)(C)=O)c3)cc12` [Example 77, (2-Amino-5-(3-isopropyl-1H-pyrrolo[2,3-b]pyridin-5-yl)phenyl)dimethylphosphine oxide], for which the IC50 at JAK3 (setting [1]) is greater than 1000 nM; at HPK1 (setting [2]), no more than 100 nM. Also, at JAK3, the “JAKs/HPK1 IC50 Ratio, B*” value is listed as 76.
In the case of `COc1cc2c(cc1Nc1ncc3c(n1)n(-c1ccccc1)c(=O)n3C)CN(C)CC2` [Example 166, 2-((6-Methoxy-2-methyl-1,2,3,4-tetrahydroisoquinolin-7-yl)amino)-7-methyl-9-phenyl-7,9-dihydro-8H-purin-8-one], the IC50 on JAK3 (setting [1]) was greater than 1000 nM; at HPK1 (setting [2]), 100 to 500 nM.
For `COc1cc2c(cc1Nc1ncc(Cl)c(-c3cncc4ccccc34)n1)CN(C)CC2` [Example 48, N-(5-chloro-4-(isoquinolin-4-yl)pyrimidin-2-yl)-6-methoxy-2-methyl-1,2,3,4-tetrahydroisoquinolin-7-amine], the IC50 at JAK3 (setting [1]) is greater than 1000 nM; on HPK1 (setting [2]), no more than 100 nM. The “JAKs/HPK1 IC50 Ratio, B*” value on JAK3 is listed as greater than 179.
For `CCc1c[nH]c2ncc(-c3ccc(C(F)F)c(P(C)(C)=O)c3)cc12` [Example 61, (2-(Difluoromethyl)-5-(3-ethyl-1H-pyrrolo[2,3-b]pyridin-5-yl)phenyl)dimethylphosphine oxide], in that order: greater than 1000 nM, 100 to 500 nM and 15.
Take `COc1cc2c(cc1Nc1ncc(Cl)c(N3CCC4(COC4)C3)n1)CN(C)CC2` [Example 170, N-(5-chloro-4-(2-oxa-6-azaspiro[3.4]octan-6-yl)pyrimidin-2-yl)-6-methoxy-2-methyl-1,2,3,4-tetrahydroisoquinolin-7-amine]: the IC50 at JAK3 (setting [1]) is greater than 1000 nM; at HPK1 (setting [2]) it was 100 to 500 nM. The “JAKs/HPK1 IC50 Ratio, B*” value at JAK3 was determined as 77.

Source of the values: US12612424B2, “HPK1 inhibitors and uses thereof” (Regor Pharmaceuticals, Inc., priority 2019, dated 2026).
